This is an account of results in paper PMC8802628, “Selective activation of PFKL suppresses the phagocytic oxidative burst” (Cell, 2021).

Where a chain is given by its changes, count along the chain named. Like-named read-outs stand apart in the source and are kept apart here.

Assay [1] has as its target T1, PFKL (Homo sapiens, UniProt P17858).
T1 construct: made in house; host or cells: Sf9 insect cells (baculovirus, Bac-to-Bac)
T1 sequence (P17858 1-780): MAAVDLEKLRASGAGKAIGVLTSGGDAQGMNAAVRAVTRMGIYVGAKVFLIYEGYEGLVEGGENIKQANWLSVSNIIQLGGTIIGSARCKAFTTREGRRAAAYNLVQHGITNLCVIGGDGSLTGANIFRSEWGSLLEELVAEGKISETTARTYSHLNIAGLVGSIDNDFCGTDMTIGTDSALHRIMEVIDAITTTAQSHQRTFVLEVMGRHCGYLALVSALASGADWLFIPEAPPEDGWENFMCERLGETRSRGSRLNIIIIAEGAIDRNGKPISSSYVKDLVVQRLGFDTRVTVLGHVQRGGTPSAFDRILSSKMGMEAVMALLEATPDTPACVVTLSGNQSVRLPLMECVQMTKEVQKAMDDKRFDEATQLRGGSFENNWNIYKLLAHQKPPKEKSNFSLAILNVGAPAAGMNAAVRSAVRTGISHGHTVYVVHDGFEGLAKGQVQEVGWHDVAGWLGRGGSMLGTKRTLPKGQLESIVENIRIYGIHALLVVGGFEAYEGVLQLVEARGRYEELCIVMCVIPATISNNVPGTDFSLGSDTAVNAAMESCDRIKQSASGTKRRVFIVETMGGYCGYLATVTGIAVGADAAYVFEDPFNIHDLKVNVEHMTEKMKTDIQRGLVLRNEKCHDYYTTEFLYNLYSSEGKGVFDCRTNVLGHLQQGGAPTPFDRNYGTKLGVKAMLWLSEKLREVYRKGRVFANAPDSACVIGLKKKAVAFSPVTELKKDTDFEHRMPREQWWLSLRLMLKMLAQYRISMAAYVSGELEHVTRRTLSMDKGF
In words: Recombinant PFKL activity assay (relief of ATP inhibition). Type of assay: biochemical. The source says: (§1) Recombinant N-terminal His-tagged human PFKL (NP_002617), PFKM (NP_000280), and PFKP (NM_002627.4) were generated as described ([Webb et al., 2015], [2017]). Point mutants of PFK1 were generated using the QuikChange Lightning kit (Aligent).
(§2) His-tagged PFK1 was expressed and purified as described with slight modifications ([Webb et al., 2015], [2017]). Briefly, baculovirus was generated using the Bac-to-Bac Expression system (Invitrogen). PFK1 was expressed in 2-5 × 10^6 sf9 cells at a multiplicity of infection of two for 48 h. Cells were lysed in 20 mM HEPES, pH 7.5, 80 mM potassium phosphate, 1 mM 2-mercapentoethanol, 10% glycerol, 10 mM imidazole, and EDTA-free Protease Inhibitor Cocktail (Abcam) with a Dounce homogenizer. The soluble lysate was incubated with HisPur cobalt resin (ThermoFisher Scientific). The resin was washed with 5 bead volumes lysis buffer, 10 bead volumes lysis buffer containing 2 M NaCl, and 5 further bead volumes lysis buffer. PFK1 was eluted in lysis buffer containing 100 mM imidazole. Fractions containing protein were pooled, passed over a desalting column equilibrated in freezing buffer [20 mM HEPES pH 7.5, 1 mM DTT, 500 μM ammonium sulfate, 5% glycerol, 1 mM ATP, and 100 μM EDTA] and concentrated using an Amicon Ultracel-30K Centrifugal Filter Unit (MilliporeSigma). Protein was quantified using a Bradford Protein Assay kit (ThermoFisher Scientific), and aliquotes frozen in liquid nitrogen for storage at −80°C.
(§3) PFK1 activity was determined using the rate of FBP production via an auxiliary enzyme assay adapted to a 96-well format ([Brüser et al., 2012]; [Webb et al., 2015]). The auxiliary enzymes aldolase, triosephosphate isomerase, and glycerol phosphate dehydrogenase were purchased from MilliporeSigma as ammonium sulfate slurries and desalted using an Amicon Ultracel-10K Centrifugal Filter Unit. For assays containing FBP, the rate of ADP production was determined using the auxiliary enzymes pyruvate kinase (PK) and lactate dehydrogenase (LDH) (MilliporeSigma) in a buffer containing 250 μM phosphoenolpyruvic acid, […] NADH, 50 mM HEPES pH 7.5, 100 mM KCl, 1 mM DTT, and effector concentrations as described in the text. The temperature was equilibrated to 25°C for 5 min before initiating the reaction 10 mM MgCl2. Absorbance at 340 nm was measured using a Varioskan LUX Multimode microplate reader (ThermoFisher). Kinetic parameters were generated by nonlinear regression analysis using Prism (GraphPad Software) and are the mean of a minimum of three measurements from two independent preparations of protein. One unit of activity was defined as the amount of enzyme that catalyzed the formation of 1 μmol of fructose 1,6-bisphosphate per min at 25°C. Assays for PFKM were performed at pH 7.0 due to the pH-dependence of ATP inhibition ([Trivedi and Danforth, 1966]).

Assay [2] concerns the target T2, PFKL(K315R) (PFKL−pocket) (Homo sapiens, UniProt P17858, K315R).
T2 construct: made in house; host or cells: Sf9 insect cells (baculovirus)
T2 sequence (P17858 1-780 K315R): T1 sequence (P17858 1-780) with K315R
In words: Recombinant PFKL−pocket activity assay. The format is biochemical. The conditions noted are these: for EC50: pH 7.5, 3.1 mM ATP, 4 mM F6P, mean ± SEM, read-out: EC50, activation of PFKL−pocket.
From the text: as §1, §2, §3

Where [3] appears, read: PFKL wild type, pH 7.5, 225 μM ATP.
Where [4] appears, read: PFKL−pocket, pH 7.5, 225 μM ATP.
[5] abbreviates: pH 7.5, 3.1 mM ATP, 4 mM F6P, mean ± SEM, read-out: EC50, activation of PFKL wild type.

A word on the EC50: it is the concentration giving half of the maximal effect.

With `O=C(CO)[C@@H](O)[C@H](O)[C@H](O)COP(=O)(O)O` [F6P, fructose 6-phosphate], the figures for the “Vmax,F6P” value in assay [1] (setting [3]) and in assay [2] (setting [4]) were 13.28 ± 1.69 micromoles FBP per minute per milligram PFK1 and 14.68 ± 0.98 micromoles FBP per minute per milligram PFK1, respectively. For the same molecule, the figures for the “hF6P (Hill coefficient)” value in assay [1] (setting [3]) and in assay [2] (setting [4]) were 3.16 ± 0.89 and 3.26 ± 0.48, respectively.
As for `COc1ccccc1-c1cc2n(n1)Cc1ccc(NC(C)=O)cc1OC2` [LDC7559, reference compound], the EC50 in assay [1] (setting [5]) stood at 0.066 ± 0.0189 µM.
For the molecule `CC(=O)Nc1ccc2c(c1)OCc1cc(-c3ccccc3)nn1C2` [NA-5], the EC50 in assay [1] (setting [5]) amounted to 0.0192 ± 0.00679 µM. Moreover, in assay [2], the “fold change of EC50,NA-5 of PFKL−pocket versus wild-type PFKL” value is ~ 30 fold and the EC50 worked out at 0.615 ± 0.138 µM.
For `CC(=O)Nc1ccc2c(c1)OCc1cc(-c3ccccc3C#CCCCO)nn1C2` [NA-11], the EC50 in assay [1] (Control (ligand series), pH 7.5, 4.0 mM F6P, 3.1 mM ATP, read-out: EC50, NA-11) turned out to be 0.012 ± 0.00273 µM; in assay [1] (pH 7.0, 4.0 mM F6P, 3.1 mM ATP, mean ± s.e.m., read-out: EC50, NA-11), 0.074 ± 0.0209 µM; in assay [1] (pH 7.5 (pH series), 4.0 mM F6P, 3.1 mM ATP, mean ± s.e.m., read-out: EC50, NA-11), 0.0218 ± 0.00621 µM; in assay [1] (setting [5]), 0.014 ± 0.00291 µM; in assay [1] (pH 8.0, 4.0 mM F6P, 3.1 mM ATP, mean ± s.e.m., read-out: EC50, NA-11), 0.00411 ± 0.00092 µM; in assay [1] (with 50 μM AMP, pH 7.5, 4.0 mM F6P, 3.1 mM ATP, read-out: EC50, NA-11), 0.0123 ± 0.00338 µM. Besides, the EC50 in assay [1] (with 200 μM FBP, pH 7.5, 4.0 mM F6P, 3.1 mM ATP, read-out: EC50, NA-11) was 0.012 ± 0.00699 µM; in assay [2], 0.167 ± 0.0278 µM. Moreover, the Vmax is 18.11 ± 1.23 μmoles FBP per min per mg PFK1 in assay [1] (NA-11 titration with 50 μM AMP, pH 7.5, 4.0 mM F6P, 3.1 mM ATP); 21.31 ± 2.44 μmoles FBP per min per mg PFK1 in assay [1] (NA-11 titration with 200 μM FBP, pH 7.5, 4.0 mM F6P, 3.1 mM ATP); 18.19 ± 1.29 μmoles FBP per min per mg PFK1 in assay [1] (NA-11 titration, Control, pH 7.5, 4.0 mM F6P, 3.1 mM ATP).
